Assay results as given in the supplement of paper PMC10307832.

Columns and labels:
Assay in all cases: relative viability (nuclei count vs DMSO), 5 days (fraction); higher = more cells survive
[1] = system: A-427
How it was run: (§1)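 Relative viability was taken as the ratio of nuclei in treated wells to nuclei in vehicle wells. Lung cancer cell lines in 1536-well plates received compounds by pin tool one day after seeding, either one drug alone or a fixed anchor-drug dose plus five library-drug doses (not always all listed) in √10 steps. Nuclei were counted on 4× images after 5 days of treatment, and values are medians of duplicate plates.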

[2] = system: CAL-12T
How it was run: as §1

[3] = system: COR-L 105
How it was run: as §1

[4] = system: COR-L23
How it was run: as §1

[5] = system: EPLC-272H
How it was run: as §1

[6] = system: HOP-62
How it was run: as §1

[7] = system: LCLC-103H
How it was run: as §1

[8] = system: LXF-289
How it was run: as §1

[9] = system: NCI-H1395
How it was run: as §1

[10] = system: NCI-H1651
How it was run: as §1

[11] = system: NCI-H1975
How it was run: as §1

[12] = system: NCI-H1993
How it was run: as §1

[13] = system: NCI-H2023
How it was run: as §1

[14] = system: NCI-H2085
How it was run: as §1

[15] = system: NCI-H2087
How it was run: as §1

[16] = system: NCI-H2170
How it was run: as §1

[17] = system: NCI-H3122
How it was run: as §1

[18] = system: NCI-H596
How it was run: as §1

[19] = system: NCI-H647
How it was run: as §1

[20] = system: NCI-H650
How it was run: as §1

[21] = system: PC-14
How it was run: as §1

[22] = system: RERF-LC-KJ
How it was run: as §1

[23] = system: SK-MES-1
How it was run: as §1

O=C(O)CCCCC(CCSCc1ccccc1)SCc1ccccc1 (stereo not given) [CPI-613] + Cc1nc(Nc2ncc(C(=O)Nc3c(C)cccc3Cl)s2)cc(N2CCN(CCO)CC2)n1 [Dasatinib] (partner 0.075 µM)
relative viability ([1]; first compound 5 µM): 0.684 | relative viability ([1]; first compound 15.81 µM): 0.765 | relative viability ([1]; first compound 50 µM): 0.547 | relative viability ([1]; first compound 158.11 µM): 0.365 | relative viability ([1]; first compound 500 µM): 0.131 | relative viability ([2]; first compound 5 µM): 0.398 | relative viability ([2]; first compound 15.81 µM): 0.454 | relative viability ([2]; first compound 50 µM): 0.263 | relative viability ([2]; first compound 158.11 µM): 0.0331 | relative viability ([2]; first compound 500 µM): 0.0093 | relative viability ([3]; first compound 5 µM): 0.386 | relative viability ([3]; first compound 15.81 µM): 0.285 | relative viability ([3]; first compound 50 µM): 0.307 | relative viability ([3]; first compound 158.11 µM): 0.278 | relative viability ([3]; first compound 500 µM): 0.131 | relative viability ([4]; first compound 5 µM): 0.568 | relative viability ([4]; first compound 15.81 µM): 0.493 | relative viability ([4]; first compound 50 µM): 0.485 | relative viability ([4]; first compound 158.11 µM): 0.334 | relative viability ([4]; first compound 500 µM): 0.0383 | relative viability ([5]; first compound 5 µM): 0.317 | relative viability ([5]; first compound 15.81 µM): 0.334 | relative viability ([5]; first compound 50 µM): 0.449 | relative viability ([5]; first compound 158.11 µM): 0.219 | relative viability ([5]; first compound 500 µM): 0.0109 | relative viability ([6]; first compound 5 µM): 0.625 | relative viability ([6]; first compound 15.81 µM): 0.68 | relative viability ([6]; first compound 50 µM): 0.659 | relative viability ([6]; first compound 158.11 µM): 0.521 | relative viability ([6]; first compound 500 µM): 0.0443 | relative viability ([7]; first compound 5 µM): 0.463 | relative viability ([7]; first compound 15.81 µM): 0.472 | relative viability ([7]; first compound 50 µM): 0.41 | relative viability ([7]; first compound 158.11 µM): 0.422 | relative viability ([7]; first compound 500 µM): 0.271 | relative viability ([8]; first compound 5 µM): 0.208 | relative viability ([8]; first compound 15.81 µM): 0.206 | relative viability ([8]; first compound 50 µM): 0.235 | relative viability ([8]; first compound 158.11 µM): 0.203 | relative viability ([8]; first compound 500 µM): 0.0464 | relative viability ([9]; first compound 5 µM): 0.397 | relative viability ([9]; first compound 15.81 µM): 0.352 | relative viability ([9]; first compound 50 µM): 0.414 | relative viability ([9]; first compound 158.11 µM): 0.409 | relative viability ([9]; first compound 500 µM): 0.358 | relative viability ([10]; first compound 5 µM): 0.348 | relative viability ([10]; first compound 15.81 µM): 0.387 | relative viability ([10]; first compound 50 µM): 0.416 | relative viability ([10]; first compound 158.11 µM): 0.282 | relative viability ([10]; first compound 500 µM): 0.123 | relative viability ([11]; first compound 5 µM): 0.377 | relative viability ([11]; first compound 15.81 µM): 0.331 | relative viability ([11]; first compound 50 µM): 0.347 | relative viability ([11]; first compound 158.11 µM): 0.176 | relative viability ([11]; first compound 500 µM): 0.111 | relative viability ([12]; first compound 5 µM): 0.495 | relative viability ([12]; first compound 15.81 µM): 0.262 | relative viability ([12]; first compound 50 µM): 0.605 | relative viability ([12]; first compound 158.11 µM): 0.522 | relative viability ([12]; first compound 500 µM): 0.369 | relative viability ([13]; first compound 5 µM): 0.552 | relative viability ([13]; first compound 15.81 µM): 0.457 | relative viability ([13]; first compound 50 µM): 0.483 | relative viability ([13]; first compound 158.11 µM): 0.0687 | relative viability ([13]; first compound 500 µM): 0.0087 | relative viability ([14]; first compound 5 µM): 0.267 | relative viability ([14]; first compound 15.81 µM): 0.266 | relative viability ([14]; first compound 50 µM): 0.255 | relative viability ([14]; first compound 158.11 µM): 0.242 | relative viability ([14]; first compound 500 µM): 0.257 | relative viability ([15]; first compound 5 µM): 0.809 | relative viability ([15]; first compound 15.81 µM): 0.886 | relative viability ([15]; first compound 50 µM): 0.792 | relative viability ([15]; first compound 158.11 µM): 0.196 | relative viability ([15]; first compound 500 µM): 0.023 | relative viability ([16]; first compound 5 µM): 0.586 | relative viability ([16]; first compound 15.81 µM): 0.566 | relative viability ([16]; first compound 50 µM): 0.612 | relative viability ([16]; first compound 158.11 µM): 0.461 | relative viability ([16]; first compound 500 µM): 0.167 | relative viability ([17]; first compound 5 µM): 0.795 | relative viability ([17]; first compound 15.81 µM): 0.693 | relative viability ([17]; first compound 50 µM): 0.802 | relative viability ([17]; first compound 158.11 µM): 0.702 | relative viability ([17]; first compound 500 µM): 0.28 | relative viability ([18]; first compound 5 µM): 0.647 | relative viability ([18]; first compound 15.81 µM): 0.616 | relative viability ([18]; first compound 50 µM): 0.628 | relative viability ([18]; first compound 158.11 µM): 0.465 | relative viability ([18]; first compound 500 µM): 0.0504 | relative viability ([19]; first compound 5 µM): 0.197 | relative viability ([19]; first compound 15.81 µM): 0.144 | relative viability ([19]; first compound 50 µM): 0.146 | relative viability ([19]; first compound 158.11 µM): 0.0387 | relative viability ([19]; first compound 500 µM): 0.0112 | relative viability ([20]; first compound 5 µM): 0.474 | relative viability ([20]; first compound 15.81 µM): 0.366 | relative viability ([20]; first compound 50 µM): 0.424 | relative viability ([20]; first compound 158.11 µM): 0.345 | relative viability ([20]; first compound 500 µM): 0.361 | relative viability ([21]; first compound 5 µM): 0.237 | relative viability ([21]; first compound 15.81 µM): 0.232 | relative viability ([21]; first compound 50 µM): 0.247 | relative viability ([21]; first compound 158.11 µM): 0.0644 | relative viability ([21]; first compound 500 µM): 0.0134 | relative viability ([22]; first compound 5 µM): 0.784 | relative viability ([22]; first compound 15.81 µM): 0.754 | relative viability ([22]; first compound 50 µM): 0.766 | relative viability ([22]; first compound 158.11 µM): 0.198 | relative viability ([22]; first compound 500 µM): 0.123 | relative viability ([23]; first compound 5 µM): 0.393 | relative viability ([23]; first compound 15.81 µM): 0.428 | relative viability ([23]; first compound 50 µM): 0.432 | relative viability ([23]; first compound 158.11 µM): 0.125 | relative viability ([23]; first compound 500 µM): 0.0807
